Test [1] deals with T1, GRP receptor (Mus musculus, UniProt P21729).
T1 construct: Swiss 3T3 fibroblasts were used in these tests as the source of GRP receptor; endogenous in cells; host or cells: Swiss 3T3 fibroblasts (from Dr. K. Brown, Institute of Animal Physiology, Cambridge, U.K.)
Put plainly: Binding inhibition of radiolabelled GRP (Procedure A). To be noted: for EC50: [Antagonist] reducing specific binding of 7 nM [3H-Phe15] GRP 15-27 to 50%, Swiss 3T3 cell monolayers. As for the experimental part:
Swiss 3T3 cells, obtained from Dr. K. Brown (Institute of Animal Physiology, Cambridge, U.K.). The cells were grown to confluency in Costar 12-well plates containing DMEM (Gibco) supplemented with 10% fetal bovine serum, 2 mM glutamine and 1% penicillin-streptomycin. The cells were washed twice with binding buffer [1:1 DMEM:Waymouths MB752/1 medium, plus 1 mg/ml BSA (Fraction V, Calbiochem)]. The antagonist was dissolved in 10 mM HCl, and diluted to the appropriate concentration in binding buffer. The antagonist was then added to the cells, followed by radiolabelled GRP at a final concentration of 7 nM. After 30 minutes incubation at 37° C., the supernatant liquid was removed and the cell monolayer rinsed four times with washing buffer (150 mM NaCl, 20 mM Na2 HPO4, 5 mM KCl, 1.8 mM KH2 PO4, 1 mg/ml BSA). The cells were then lysed with 1 ml/well of lysis buffer (1% Triton X-100, 0.1% BSA), and the solution was aspirated into scintillation vials for counting. Each data point was collected in triplicate.
Binding Inhibition: [Antagonist] which reduces the specific binding of 7 nM [^3 H-Phe^15 ] GRP 15-27 to 50% of the level observed in the absence of antagonist. Assay performed in Swiss 3T3 cell monolayers.

The test system of test [2] is Swiss 3T3 cells. The test is classed as cell-based. To be noted: for EC50: 3 h. How it is done: Swiss 3T3 cells were grown in monolayer culture in 24-well plates (Costar) in serum-free DMEM for 48 hours, at which time the GRP or a GRP homologue, the antagonist and 23 nM ^3 H-thymidine were added. […] The cells were harvested with a Skatron filter apparatus, and the filters counted in a scintillation counter.
Mitogenic Inhibition: [Antagonist] which reduces the uptake of ^3 H-thymidine caused by 7 nM [Nle^27 ] GRP 15-27 to 50% of the level observed in the absence of antagonist. […] GRP 1-27 as the mitogen. Assay performed on Swiss 3T3 monolayers.

The test system of test [3] is Swiss 3T3 cells. The test is classed as cell-based. To be noted: for EC50: 3 h. As for the experimental part: Swiss 3T3 cells were grown in monolayer culture in 24-well plates (Costar) in serum-free DMEM for 48 hours, at which time the peptide being tested and 23 nM ^3 H-thymidine were added. […] The cells were harvested with a Skatron filter apparatus, and the filters counted in a scintillation counter. Mitogenic Stimulation: [Agonist] which stimulates uptake of ^3 H-thymidine to 50% of the maximal level caused by [Nle^27 ] GRP 15-27. Assay performed on Swiss 3T3 monolayers.
The source holds these as a separate data set.

Test [4] relates to H345 SCLC cells. Put plainly: Stimulation of Ca2+ release in SCLC (Procedure D). The class given is cell-based. To be noted: 100 nM GRP, read-out: [Ca2+]i in SCLC IC50. How it is done: Following the procedure of Heikkila et al., J. Biol. Chem. 262 16456 (1987), approximately 1×10^8 H345 SCLC cells, maintained in RPMI-1640 (Ro) medium supplemented with selenium, insulin, and transferrin, were harvested by settling and washing with Ro. They were then resuspended in 2 ml Ro, to which 1.2 nmol Fura-2/AM per 10^6 cells was added. After a 15 minute incubation at 37° C., the cells were diluted to 10 ml with Ro and incubated for 1 hour at 37° C. The cells were then centrifuged and resuspended in HEPES-saline (140 mM NaCl, 5 mM KCl, 5 mM glucose, 1 mM CaCl2, 1 mM MgCl2, 20 mM HEPES, pH 7.4) at a density of 2.5-5×10^6 cells/ml. The cells were kept on ice for up to 2 hours before being used. Ca^2+ measurements were performed at 37° C. in an Aminco SPF-500 fluorimeter. The excitation wavelength was 340 nm, the emission wavelength 510 nm. Two ml of cell suspension was periodically resuspended in a 3 ml plastic cuvette. They were equilibrated at 37° C. for at least 5 minutes before data was collected. After a stable baseline was established, a mixture of the compound of interest an 100 nM GRP was added, and data was collected for approximately 5 minutes. At that time, a challenge dose of GRP was added, and data was collected for an additional 5 minutes. […] Baseline fluorescence was measured after the subsequent addition of 40 μl 2M Tris (pH 9.5) and 64 μl 0.2M EGTA.

The mark [5] stands for this setting: assays of example 2 repeated, unit inferred.

Where two headings read alike, the source gives them in different places. Residues, ends and D or L forms follow the SMILES beside them. No end group written: not given here. *: point of attachment. OBn = c1ccc(CO*)cc1; X1 = CCCCCO*; OPr = CCCO*; X2 = CCCCO*

T1 sequence (P21729 whole entry): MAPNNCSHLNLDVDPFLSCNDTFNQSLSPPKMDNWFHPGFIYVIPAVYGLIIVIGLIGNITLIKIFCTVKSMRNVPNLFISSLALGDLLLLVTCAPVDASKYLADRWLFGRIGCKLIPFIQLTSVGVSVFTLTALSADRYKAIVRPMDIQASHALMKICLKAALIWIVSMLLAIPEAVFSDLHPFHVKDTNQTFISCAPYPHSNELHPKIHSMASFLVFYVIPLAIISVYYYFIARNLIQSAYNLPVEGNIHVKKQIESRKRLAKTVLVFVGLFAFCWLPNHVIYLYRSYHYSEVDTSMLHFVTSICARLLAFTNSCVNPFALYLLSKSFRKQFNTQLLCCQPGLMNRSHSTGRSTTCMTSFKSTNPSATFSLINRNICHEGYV

In general, IC50 refers to the concentration at which inhibition is half-maximal. `CCCOC(=O)[C@H](CC(C)C)NC(=O)[C@H](Cc1c[nH]cn1)NC(=O)CNC(=O)[C@@H](NC(=O)[C@H](C)NC(=O)[C@H](Cc1c[nH]c2ccccc12)NC(=O)[C@H](Cc1c[nH]cn1)NC(C)=O)C(C)C` [AcHisTrpAlaValGlyHisLeu--O(CH2)2 CH3] (Ac-HWAVGHL-OPr) yielded an IC50 in test [1] (setting [5]) of 3.5 nM.

The term EC50 denotes the concentration at which the effect is half-maximal. Low values mean an effect from little substance, high ones a need for much substance. As to “HWAVGHL-NH2 [His--Trp--Ala--Val--Gly--His--LeuNH2]”, the concentration giving a half-maximal response (EC50) in test [2] is 50000 nM; in test [3] it was greater than 100000 nM; in test [1], 20000 nM.

Take `CCOC(=O)[C@H](CC(C)C)NC(=O)[C@H](Cc1c[nH]cn1)NC(=O)CNC(=O)[C@@H](NC(=O)[C@H](C)NC(=O)[C@H](Cc1c[nH]c2ccccc12)NC(=O)[C@H](Cc1c[nH]cn1)NC(C)=O)C(C)C` [N-acetyl His Trp Ala Val Gly His Leu-OCH2 CH3] (Ac-HWAVGHL-OEt): the IC50 in test [2] (average of 2 experiments, read-out: Mitogenic Inhibition IC50) stood at 15 nM; in test [1] (average of 6 experiments) it was 3.9 nM; in test [4], 400 nM. In addition, the “Mitogenic Stimulation” value in test [3] (at concentrations up to 30 μM) is on record as “none”.

`CCCCOC(=O)[C@H](CC(C)C)NC(=O)[C@H](Cc1c[nH]cn1)NC(=O)CNC(=O)[C@@H](NC(=O)[C@H](C)NC(=O)[C@H](Cc1c[nH]c2ccccc12)NC(=O)[C@H](Cc1c[nH]cn1)NC(C)=O)C(C)C` [AcHisTrpAlaValGlyHisLeu--O(CH2)3 CH3] (Ac-HWAVGHL-X2): in test [1] (setting [5]), the IC50 was 6.8 nM.

In the case of “Ac-HWAVGHL-NH2 [Ac--His--Trp--Ala--Val--Gly--His--LeuNH2]”, the EC50 in test [2] is 3000 nM; in test [3], greater than 100000 nM; in test [1] it was 2000 nM.

In test [1] (setting [5]), `CCCCCOC(=O)[C@H](CC(C)C)NC(=O)[C@H](Cc1c[nH]cn1)NC(=O)CNC(=O)[C@@H](NC(=O)[C@H](C)NC(=O)[C@H](Cc1c[nH]c2ccccc12)NC(=O)[C@H](Cc1c[nH]cn1)NC(C)=O)C(C)C` [AcHisTrpAlaValGlyHisLeu--O(CH2)4 CH3] (Ac-HWAVGHL-X1) came in with an IC50 of 12.4 nM.

`CC(=O)N[C@@H](Cc1c[nH]cn1)C(=O)N[C@@H](Cc1c[nH]c2ccccc12)C(=O)N[C@@H](C)C(=O)N[C@H](C(=O)NCC(=O)N[C@@H](Cc1c[nH]cn1)C(=O)N[C@@H](CC(C)C)C(=O)OCc1ccccc1)C(C)C` [AcHisTrpAlaValGlyHisLeu--OCH2 C6 H5] (Ac-HWAVGHL-OBn) gave an IC50 in test [1] (setting [5]) of 5.4 nM.

For the compound `COC(=O)[C@H](CC(C)C)NC(=O)[C@H](Cc1c[nH]cn1)NC(=O)CNC(=O)[C@@H](NC(=O)[C@H](C)NC(=O)[C@H](Cc1c[nH]c2ccccc12)NC(=O)[C@H](Cc1c[nH]cn1)NC(C)=O)C(C)C` [AcHisTrpAlaValGlyHisLeu--OCH3] (Ac-HWAVGHL-OMe), the IC50 in test [1] (setting [5]) was 7.7 nM.

The values above are taken from patent US5047502A, “Gastrin releasing peptide antagonist” (Merck and Co., Inc., priority 1989, dated 1991).
